Measurements reported in paper PMC10999543, “Identification of kinase modulators as host-directed therapeutics against intracellular methicillin-resistant Staphylococcus aureus” (Frontiers in Cellular and Infection Microbiology, 2024).
Read-outs that look alike come from different tables or passages of the source.

What was measured:
intracellular MRSA = assay type: cell-based, Staphylococcus aureus; conditions: for %GFP+ rep 1 / z-scoreMRSA+ rep 1: replicate 1; for %GFP+ rep 2 / z-scoreMRSA+ rep 2: replicate 2; for %GFP+ rep 3 / z-scoreMRSA+ rep 3: replicate 3; for z-scoreMRSA+ mean: mean of 3 replicates
Summary of the method: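 HeLa cells were infected with GFP-expressing MRSA (mean MOI 6.8) for 1 h, treated with 30 µg/ml gentamicin for 15 min, then incubated overnight at 37°C with kinase inhibitors and 5 µg/ml gentamicin. Flow cytometry gave % GFP-positive cells, with cell count as viability. Hits were z-score ≤ -2 (infection) and ≥ -3 (count) versus DMSO.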

HeLa cells = test: Compound screen by flow cytometry: HeLa cell count as surrogate readout of cell viability (z-scoreHeLa); assay type: cell-based, human; conditions: for cell count rep 1 / z-scoreHeLa rep 1: replicate 1; for cell count rep 2 / z-scoreHeLa rep 2: replicate 2; for cell count rep 3 / z-scoreHeLa rep 3: replicate 3; for z-scoreHeLa mean: mean of 3 replicates
Summary of the method: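 The viability surrogate was the count of fixed HeLa cells by flow cytometry, converted to z-scores against DMSO controls with values deviating two-fold excluded. Before counting, cells had been infected with MRSA for 1 h and cleared of extracellular bacteria with gentamicin. They were then exposed overnight to kinase inhibitors in triplicate.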

[1] = PKIS compound screen raw data, MRSA-infected HeLa cells
[2] = PKIS compound screen, MRSA-infected HeLa cells
[3] = PKIS compound screen, Yes/No call
[4] = PKIS compound screen, Yes/No call (effect without cell death)
[5] = PKIS compound screen, Yes/No call on z-scoreMRSA+
[6] = PKIS compounds raw data, MRSA-infected HeLa cells
[7] = PKIS compound screen raw data, HeLa cell count
[8] = PKIS compound screen, HeLa cell count
[9] = PKIS compound screen, Yes/No call on z-scoreHeLa
[10] = PKIS compounds raw data, HeLa cell count
[11] = Yes/No: effect without cell death
[12] = compound screen, MRSA-infected HeLa cells
[13] = compound screen, HeLa cell count

SMILES | %GFP+ rep 1 (intracellular MRSA; [1]) [%] | %GFP+ rep 2 (intracellular MRSA; [1]) [%] | %GFP+ rep 3 (intracellular MRSA; [1]) [%] | effect (intracellular MRSA; [3]) | hit (intracellular MRSA; [4]) | z-scoreMRSA+ mean (intracellular MRSA; PKIS compound screen) | z-scoreMRSA+ rep 1 (intracellular MRSA; PKIS compound screen) | z-scoreMRSA+ rep 2 (intracellular MRSA; PKIS compound screen) | z-scoreMRSA+ rep 3 (intracellular MRSA; PKIS compound screen) | %GFP+ rep 1 (intracellular MRSA; [6]) [%] | %GFP+ rep 2 (intracellular MRSA; [6]) [%] | %GFP+ rep 3 (intracellular MRSA; [6]) [%] | cell count rep 1 (HeLa cells; [7]) | cell count rep 2 (HeLa cells; [7]) | cell count rep 3 (HeLa cells; [7]) | cell death (HeLa cells; [3]) | z-scoreHeLa mean (HeLa cells; PKIS compound screen) | z-scoreHeLa rep 1 (HeLa cells; PKIS compound screen) | z-scoreHeLa rep 2 (HeLa cells; PKIS compound screen) | z-scoreHeLa rep 3 (HeLa cells; PKIS compound screen) | further results
COc1cc(Nc2nccc(N3CCC(NC(=O)Nc4ccc5c(c4)OCO5)C3)n2)cc(OC)c1OC (centres unmarked) [GSK1379766A] | 17.4 | 18.6 | 19.8 | No | No | 0.27 | 0.18 | 0.32 | 0.30 | 28.0 | 27.7 | 28.9 | 25836 | 29727 | 37841 | No | 0.15 | 0.05 | -0.13 | 0.53 | z-scoreMRSA+ mean (intracellular MRSA; [2]): -0.04; z-scoreMRSA+ rep 1 (intracellular MRSA; [2]): -0.15; z-scoreMRSA+ rep 2 (intracellular MRSA; [2]): 0.0226; z-scoreMRSA+ rep 3 (intracellular MRSA; [2]): 0.00377; effect (intracellular MRSA; [5]): No; z-scoreHeLa mean (HeLa cells; [8]): -0.17; z-scoreHeLa rep 1 (HeLa cells; [8]): 0.87; z-scoreHeLa rep 2 (HeLa cells; [8]): -0.94; z-scoreHeLa rep 3 (HeLa cells; [8]): -0.43; cell death (HeLa cells; [9]): No; cell count rep 1 (HeLa cells; [10]): 6133; cell count rep 2 (HeLa cells; [10]): 5809; cell count rep 3 (HeLa cells; [10]): 6429
COc1ccc(CNC(=O)NC2CCN(c3ccnc(Nc4ccc(F)cc4)n3)CC2)cc1 [GSK1379788A] | 25.3 | 23.5 | 21.9 |  |  |  |  |  |  |  |  |  | 6376 | 5935 | 7721 |  |  |  |  |  | effect (intracellular MRSA; Yes/No call from z-scoreMRSA+): No; hit (intracellular MRSA; [11]): No; z-scoreMRSA+ mean (intracellular MRSA; [12]): 0.044; z-scoreMRSA+ rep 1 (intracellular MRSA; [12]): 0.00598; z-scoreMRSA+ rep 2 (intracellular MRSA; [12]): 0.22; z-scoreMRSA+ rep 3 (intracellular MRSA; [12]): -0.09; cell death (HeLa cells; Yes/No call from z-scoreHeLa): No; z-scoreHeLa mean (HeLa cells; [13]): 1.43; z-scoreHeLa rep 1 (HeLa cells; [13]): 1.46; z-scoreHeLa rep 2 (HeLa cells; [13]): 1.26; z-scoreHeLa rep 3 (HeLa cells; [13]): 1.57
O=C(Nc1ccccc1F)NC1CCN(c2ccnc(Nc3ccc(F)cc3)n2)CC1 [GSK1379800A] |  |  |  | No | No | 0.29 | -0.13 | 0.53 | 0.47 | 26.4 | 28.8 | 29.8 |  |  |  | No | 0.79 | 0.80 | 0.32 | 1.24 | cell count rep 1 (HeLa cells; [10]): 7378; cell count rep 2 (HeLa cells; [10]): 6492; cell count rep 3 (HeLa cells; [10]): 7551
COc1ccc(Nc2nccc(N3CCC(NC(=O)C(C)c4ccc(Cl)cc4)CC3)n2)cc1 (centres unmarked) [GSK1379812A] | 20.9 | 22.5 | 23.9 | No | No | 0.50 | 0.81 | 0.11 | 0.60 | 31.2 | 26.6 | 30.5 | 31442 | 27526 | 20779 | No | 0.45 | 0.54 | 0.66 | 0.15 | z-scoreMRSA+ mean (intracellular MRSA; [2]): 0.71; z-scoreMRSA+ rep 1 (intracellular MRSA; [2]): 0.57; z-scoreMRSA+ rep 2 (intracellular MRSA; [2]): 0.84; z-scoreMRSA+ rep 3 (intracellular MRSA; [2]): 0.73; effect (intracellular MRSA; [5]): No; z-scoreHeLa mean (HeLa cells; [8]): 0.32; z-scoreHeLa rep 1 (HeLa cells; [8]): 0.21; z-scoreHeLa rep 2 (HeLa cells; [8]): 0.39; z-scoreHeLa rep 3 (HeLa cells; [8]): 0.36; cell death (HeLa cells; [9]): No; cell count rep 1 (HeLa cells; [10]): 6940; cell count rep 2 (HeLa cells; [10]): 7004; cell count rep 3 (HeLa cells; [10]): 5839
COC(=O)c1cccc(NC(=O)NC2CCN(c3ccnc(NCc4ccc(F)cc4)n3)CC2)c1 [GSK1379860A] | 17.4 | 15.1 | 20.5 | No | No | 0.11 | 0.51 | -0.14 | -0.03 | 29.7 | 25.3 | 27.1 | 26314 | 10320 | 10213 | No | -1.76 | -1.69 | -2.71 | -0.89 | z-scoreMRSA+ mean (intracellular MRSA; [2]): -0.58; z-scoreMRSA+ rep 1 (intracellular MRSA; [2]): -0.37; z-scoreMRSA+ rep 2 (intracellular MRSA; [2]): -1.18; z-scoreMRSA+ rep 3 (intracellular MRSA; [2]): -0.20; effect (intracellular MRSA; [5]): No; z-scoreHeLa mean (HeLa cells; [8]): -1.64; z-scoreHeLa rep 1 (HeLa cells; [8]): -0.66; z-scoreHeLa rep 2 (HeLa cells; [8]): -2.56; z-scoreHeLa rep 3 (HeLa cells; [8]): -1.70; cell death (HeLa cells; [9]): No; cell count rep 1 (HeLa cells; [10]): 3229; cell count rep 2 (HeLa cells; [10]): 1923; cell count rep 3 (HeLa cells; [10]): 4200
Cc1ccc(C)c(NC(=O)NCCNc2ccnc(Nc3ccc(F)cc3)n2)c1 [GSK1379878A] | 23.2 | 23.5 | 22.5 |  |  |  |  |  |  |  |  |  | 23015 | 22114 | 18414 |  |  |  |  |  | effect (intracellular MRSA; Yes/No call from z-scoreMRSA+): No; hit (intracellular MRSA; [11]): No; z-scoreMRSA+ mean (intracellular MRSA; [12]): 0.88; z-scoreMRSA+ rep 1 (intracellular MRSA; [12]): 1.18; z-scoreMRSA+ rep 2 (intracellular MRSA; [12]): 1.12; z-scoreMRSA+ rep 3 (intracellular MRSA; [12]): 0.35; cell death (HeLa cells; Yes/No call from z-scoreHeLa): No; z-scoreHeLa mean (HeLa cells; [13]): -0.62; z-scoreHeLa rep 1 (HeLa cells; [13]): -1.22; z-scoreHeLa rep 2 (HeLa cells; [13]): -0.54; z-scoreHeLa rep 3 (HeLa cells; [13]): -0.10
COc1cccc(NC(=O)NCCNc2ccnc(Nc3ccc(F)cc3)n2)c1 [GSK1379879A] | 22.7 | 22.0 | 21.2 |  |  |  |  |  |  |  |  |  | 4370 | 3480 | 4436 |  |  |  |  |  | effect (intracellular MRSA; Yes/No call from z-scoreMRSA+): No; hit (intracellular MRSA; [11]): No; z-scoreMRSA+ mean (intracellular MRSA; [12]): -0.35; z-scoreMRSA+ rep 1 (intracellular MRSA; [12]): -0.60; z-scoreMRSA+ rep 2 (intracellular MRSA; [12]): -0.15; z-scoreMRSA+ rep 3 (intracellular MRSA; [12]): -0.30; cell death (HeLa cells; Yes/No call from z-scoreHeLa): No; z-scoreHeLa mean (HeLa cells; [13]): -0.38; z-scoreHeLa rep 1 (HeLa cells; [13]): 0.0133; z-scoreHeLa rep 2 (HeLa cells; [13]): -0.63; z-scoreHeLa rep 3 (HeLa cells; [13]): -0.51
